ChEMBL document CHEMBL5291721, “A preclinical secondary pharmacology resource illuminates target-adverse drug reaction associations of marketed drugs” (Nat Commun, 2023)

Experiments:
[1] = biological target: T1, 5-hydroxytryptamine receptor 3A (Homo sapiens, UniProt P46098); type: functional
T1 sequence (P46098 whole entry): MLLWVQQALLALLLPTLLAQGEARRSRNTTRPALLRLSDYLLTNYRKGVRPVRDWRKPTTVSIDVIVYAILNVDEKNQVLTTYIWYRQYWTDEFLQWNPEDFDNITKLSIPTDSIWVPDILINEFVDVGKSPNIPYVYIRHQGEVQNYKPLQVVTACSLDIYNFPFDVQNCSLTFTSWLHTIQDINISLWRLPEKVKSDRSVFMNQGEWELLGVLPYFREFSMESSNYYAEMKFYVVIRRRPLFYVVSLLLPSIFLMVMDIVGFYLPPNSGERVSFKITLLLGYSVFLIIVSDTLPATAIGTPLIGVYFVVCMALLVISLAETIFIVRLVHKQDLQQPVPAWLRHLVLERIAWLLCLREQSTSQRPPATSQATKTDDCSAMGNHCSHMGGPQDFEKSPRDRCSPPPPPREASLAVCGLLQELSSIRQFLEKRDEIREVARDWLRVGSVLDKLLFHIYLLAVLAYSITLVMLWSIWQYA

[2] = biological target: Gamma-aminobutyric acid receptor subunit alpha-1 (Rattus norvegicus, UniProt P62813); type: functional
[3] = biological target: 5-hydroxytryptamine receptor 2B (Homo sapiens, UniProt P41595); type: functional, cell-based
[4] = biological target: T2, 5-hydroxytryptamine receptor 2C (Homo sapiens, UniProt P28335)
T2 sequence (P28335 whole entry): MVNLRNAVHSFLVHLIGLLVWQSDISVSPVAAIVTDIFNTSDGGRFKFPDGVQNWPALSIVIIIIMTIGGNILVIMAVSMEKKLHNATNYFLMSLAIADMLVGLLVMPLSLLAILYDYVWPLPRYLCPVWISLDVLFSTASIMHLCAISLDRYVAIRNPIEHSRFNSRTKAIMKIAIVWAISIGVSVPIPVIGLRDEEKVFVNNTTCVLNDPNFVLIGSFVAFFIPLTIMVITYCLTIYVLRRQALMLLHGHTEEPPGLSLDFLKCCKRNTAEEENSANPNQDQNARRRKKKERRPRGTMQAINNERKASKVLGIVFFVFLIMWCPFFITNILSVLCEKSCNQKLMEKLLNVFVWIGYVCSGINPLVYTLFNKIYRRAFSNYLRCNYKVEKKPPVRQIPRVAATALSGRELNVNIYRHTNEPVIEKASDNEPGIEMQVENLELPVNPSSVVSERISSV

[5] = biological target: Delta-type opioid receptor (Homo sapiens, UniProt P41143)
[6] = biological target: T3, Prostaglandin G/H synthase 1 (Rattus norvegicus, UniProt Q63921); type: functional
T3 sequence (Q63921 whole entry): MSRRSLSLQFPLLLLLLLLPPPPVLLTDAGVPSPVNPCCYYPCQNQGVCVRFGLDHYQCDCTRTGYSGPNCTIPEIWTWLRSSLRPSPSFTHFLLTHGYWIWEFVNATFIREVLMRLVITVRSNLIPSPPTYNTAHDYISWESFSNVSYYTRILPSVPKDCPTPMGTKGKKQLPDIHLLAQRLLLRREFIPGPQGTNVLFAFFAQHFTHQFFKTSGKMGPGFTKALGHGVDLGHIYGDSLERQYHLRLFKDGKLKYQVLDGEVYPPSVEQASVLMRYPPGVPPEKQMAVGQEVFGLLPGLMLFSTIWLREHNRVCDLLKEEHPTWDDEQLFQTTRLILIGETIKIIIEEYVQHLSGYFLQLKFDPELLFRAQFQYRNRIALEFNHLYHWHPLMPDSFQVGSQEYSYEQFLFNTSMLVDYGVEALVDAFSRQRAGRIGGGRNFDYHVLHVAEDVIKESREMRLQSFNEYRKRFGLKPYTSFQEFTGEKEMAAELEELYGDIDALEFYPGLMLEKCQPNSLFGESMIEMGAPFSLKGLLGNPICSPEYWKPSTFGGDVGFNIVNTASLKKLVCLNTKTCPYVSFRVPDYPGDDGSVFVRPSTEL

[7] = biological target: T4, Alpha-2C adrenergic receptor (Homo sapiens, UniProt P18825); type: functional
T4 sequence (P18825 whole entry): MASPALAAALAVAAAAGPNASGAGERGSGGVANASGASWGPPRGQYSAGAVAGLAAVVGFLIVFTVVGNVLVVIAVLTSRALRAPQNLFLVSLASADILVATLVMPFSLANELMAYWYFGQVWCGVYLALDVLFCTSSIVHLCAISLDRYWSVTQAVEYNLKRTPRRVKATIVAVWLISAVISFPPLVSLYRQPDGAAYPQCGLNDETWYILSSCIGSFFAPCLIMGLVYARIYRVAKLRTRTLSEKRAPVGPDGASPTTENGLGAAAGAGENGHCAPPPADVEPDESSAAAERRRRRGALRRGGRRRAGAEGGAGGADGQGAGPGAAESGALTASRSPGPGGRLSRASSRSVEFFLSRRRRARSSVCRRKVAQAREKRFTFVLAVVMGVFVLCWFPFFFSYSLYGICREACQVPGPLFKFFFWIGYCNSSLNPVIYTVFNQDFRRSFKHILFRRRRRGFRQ

[8] = biological target: 3',5'-cyclic-AMP phosphodiesterase 4D (Homo sapiens, UniProt Q08499); type: functional
[9] = biological target: Growth hormone secretagogue receptor type 1 (Homo sapiens, UniProt Q92847)
[10] = biological target: T5, Amine oxidase [flavin-containing] A (Homo sapiens, UniProt P21397); type: functional
T5 sequence (P21397 whole entry): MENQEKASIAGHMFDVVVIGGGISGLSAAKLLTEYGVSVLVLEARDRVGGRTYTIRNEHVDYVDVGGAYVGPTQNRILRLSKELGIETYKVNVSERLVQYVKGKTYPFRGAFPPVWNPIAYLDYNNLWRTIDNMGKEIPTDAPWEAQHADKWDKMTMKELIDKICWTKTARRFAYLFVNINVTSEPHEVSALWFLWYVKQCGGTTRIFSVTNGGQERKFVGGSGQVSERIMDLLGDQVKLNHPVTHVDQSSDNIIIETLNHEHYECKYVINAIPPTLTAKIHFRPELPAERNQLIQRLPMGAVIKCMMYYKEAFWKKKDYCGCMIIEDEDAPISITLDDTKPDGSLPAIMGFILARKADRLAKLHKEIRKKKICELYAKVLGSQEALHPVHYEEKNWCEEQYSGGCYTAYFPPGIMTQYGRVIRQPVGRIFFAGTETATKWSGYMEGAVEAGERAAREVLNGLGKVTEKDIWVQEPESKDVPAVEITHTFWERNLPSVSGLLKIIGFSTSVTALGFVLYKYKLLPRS

Measured: AC50
Further: assay procedure not described here.

Growth hormone secretagogue receptor type 1, sequence (Q92847 whole entry): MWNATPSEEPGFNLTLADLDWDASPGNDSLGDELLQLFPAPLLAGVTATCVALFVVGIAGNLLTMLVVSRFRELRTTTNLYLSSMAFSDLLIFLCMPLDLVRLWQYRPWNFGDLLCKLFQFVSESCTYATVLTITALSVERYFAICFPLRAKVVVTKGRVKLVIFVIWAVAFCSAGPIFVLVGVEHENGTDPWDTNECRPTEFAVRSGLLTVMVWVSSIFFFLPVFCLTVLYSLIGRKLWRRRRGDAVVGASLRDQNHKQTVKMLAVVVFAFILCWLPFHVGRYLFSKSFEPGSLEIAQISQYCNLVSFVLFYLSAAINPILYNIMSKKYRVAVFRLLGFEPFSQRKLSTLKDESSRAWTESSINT
5-hydroxytryptamine receptor 2B, sequence (P41595 whole entry): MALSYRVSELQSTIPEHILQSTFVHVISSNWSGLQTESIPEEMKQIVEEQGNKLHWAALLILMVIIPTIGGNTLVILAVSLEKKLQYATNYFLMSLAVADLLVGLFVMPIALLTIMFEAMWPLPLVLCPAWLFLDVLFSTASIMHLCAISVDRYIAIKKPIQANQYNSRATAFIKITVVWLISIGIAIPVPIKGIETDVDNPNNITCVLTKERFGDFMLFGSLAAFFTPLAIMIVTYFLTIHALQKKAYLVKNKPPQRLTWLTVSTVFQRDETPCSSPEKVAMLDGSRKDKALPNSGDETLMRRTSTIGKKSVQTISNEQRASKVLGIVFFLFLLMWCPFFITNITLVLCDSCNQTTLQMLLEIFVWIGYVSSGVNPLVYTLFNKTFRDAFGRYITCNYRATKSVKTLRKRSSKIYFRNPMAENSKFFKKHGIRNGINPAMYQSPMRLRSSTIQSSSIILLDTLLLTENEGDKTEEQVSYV
Gamma-aminobutyric acid receptor subunit alpha-1, sequence (P62813 whole entry): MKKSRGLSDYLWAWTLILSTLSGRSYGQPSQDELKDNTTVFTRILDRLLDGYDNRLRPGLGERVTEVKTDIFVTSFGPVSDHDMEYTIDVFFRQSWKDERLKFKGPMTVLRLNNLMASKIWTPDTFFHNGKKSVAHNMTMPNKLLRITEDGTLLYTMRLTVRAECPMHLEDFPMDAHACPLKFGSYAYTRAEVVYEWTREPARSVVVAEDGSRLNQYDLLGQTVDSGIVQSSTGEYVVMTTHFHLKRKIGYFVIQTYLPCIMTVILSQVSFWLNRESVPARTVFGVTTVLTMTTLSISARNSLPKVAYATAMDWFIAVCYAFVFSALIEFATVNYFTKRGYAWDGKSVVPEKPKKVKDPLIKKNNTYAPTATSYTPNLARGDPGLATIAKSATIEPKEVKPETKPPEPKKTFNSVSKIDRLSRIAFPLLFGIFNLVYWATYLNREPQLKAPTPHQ
Delta-type opioid receptor, sequence (P41143 whole entry): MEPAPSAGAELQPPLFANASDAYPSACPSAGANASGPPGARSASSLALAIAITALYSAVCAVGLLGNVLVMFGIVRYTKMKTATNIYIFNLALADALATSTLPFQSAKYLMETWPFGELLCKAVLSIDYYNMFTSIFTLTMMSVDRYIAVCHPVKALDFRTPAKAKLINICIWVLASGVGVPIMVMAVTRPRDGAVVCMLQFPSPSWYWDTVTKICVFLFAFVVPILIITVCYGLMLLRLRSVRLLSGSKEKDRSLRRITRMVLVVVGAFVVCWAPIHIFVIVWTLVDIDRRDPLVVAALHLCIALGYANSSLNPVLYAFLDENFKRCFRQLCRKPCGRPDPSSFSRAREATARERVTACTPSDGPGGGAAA
3',5'-cyclic-AMP phosphodiesterase 4D, sequence (Q08499 whole entry): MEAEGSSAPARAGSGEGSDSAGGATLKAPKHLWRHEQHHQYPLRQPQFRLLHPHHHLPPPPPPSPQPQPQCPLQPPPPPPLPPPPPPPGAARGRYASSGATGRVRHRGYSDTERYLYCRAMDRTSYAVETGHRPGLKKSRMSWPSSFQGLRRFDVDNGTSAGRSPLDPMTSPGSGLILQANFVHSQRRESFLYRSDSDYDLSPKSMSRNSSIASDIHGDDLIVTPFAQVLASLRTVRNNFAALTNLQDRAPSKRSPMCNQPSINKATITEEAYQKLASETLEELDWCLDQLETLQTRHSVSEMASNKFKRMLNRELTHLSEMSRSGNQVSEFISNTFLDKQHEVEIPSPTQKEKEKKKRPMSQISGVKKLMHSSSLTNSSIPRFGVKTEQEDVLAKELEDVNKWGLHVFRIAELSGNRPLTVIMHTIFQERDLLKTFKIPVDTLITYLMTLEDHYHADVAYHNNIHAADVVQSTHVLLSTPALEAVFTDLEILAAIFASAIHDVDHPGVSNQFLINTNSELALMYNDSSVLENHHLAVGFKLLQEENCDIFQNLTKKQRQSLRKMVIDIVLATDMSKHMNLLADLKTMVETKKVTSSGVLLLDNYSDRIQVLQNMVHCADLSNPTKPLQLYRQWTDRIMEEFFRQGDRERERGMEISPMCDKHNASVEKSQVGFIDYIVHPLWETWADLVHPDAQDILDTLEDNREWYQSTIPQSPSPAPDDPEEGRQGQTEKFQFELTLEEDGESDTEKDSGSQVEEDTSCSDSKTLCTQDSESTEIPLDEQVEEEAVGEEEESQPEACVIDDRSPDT

Nc1c2c(nc3ccccc13)CCCC2O (stereo not given) [VELNACRINE]
> 30 µM: all assays above
